19 compounds from article PMC12751012, “Nanoscale Direct-to-Biology Optimization and Structural Insights into Selective S. aureus TrmD Inhibitors” (Journal of Medicinal Chemistry, 2025) can be followed below.

In the test the target is T1, S. aureus TrmD (Staphylococcus aureus, UniProt Q2FZ43).
T1 construct: made in house; host or cells: E. coli BL21
T1 sequence (Q2FZ43 1-245): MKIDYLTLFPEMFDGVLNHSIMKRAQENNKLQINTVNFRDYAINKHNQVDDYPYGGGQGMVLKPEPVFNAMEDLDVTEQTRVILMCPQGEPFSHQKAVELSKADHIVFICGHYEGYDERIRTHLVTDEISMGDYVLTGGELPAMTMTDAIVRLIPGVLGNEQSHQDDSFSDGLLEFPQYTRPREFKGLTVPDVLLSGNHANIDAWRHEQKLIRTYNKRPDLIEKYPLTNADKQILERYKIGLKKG
The experiment in a line: nanoSAR direct-to-biology FP displacement screening of crude triazoles. Format: binding. The conditions noted are these: crude triazole at 1 μM, assuming full conversion; 500 nM TrmD, 10 nM tracer 4; read-out: % displaced tracer. An excerpt:
Next, we conducted an S. aureus TrmD-targeting nanoSAR study. For this, alkyne 7 was reacted on a 96 nmol scale with an in-house diversity-oriented azide library (N = 320, mean pairwise Tanimoto similarity = 0.11) designed to cover a large chemical fragment space, generating a panel of 320 crude triazoles ready for FP assay investigation. The composition of the azide library is designed to be chemically diverse in several categories, including physicochemical properties such as polar surface area, lipophilicity, and the number of hydrogen bond donors and acceptors, as well as structural features like the number of aromatic rings (Figure S23). A complete list of chemical structures included in the azide library can be found in Table S4. In situ reaction conditions for CuAAC were adapted from Gehrtz et al., utilizing CuSO4, which is reduced in situ to Cu(I) by sodium ascorbate and stabilized by TBTA. Degassed water and DMSO (1:1) were used as solvents to prevent the oxidation from Cu(I) to Cu(II). For the synthesis of the triazole library, a master mix was prepared, containing all reaction components except the azides. All reactions were started by the addition of the respective azide in 24 μL at a final product concentration of 4 mM (96 nmol). Reaction mixtures were incubated for 16 h at room temperature and under an argon atmosphere in sealed 96-well plates.
For FP assay screening, we used 500 nM of S. aureus TrmD and 10 nM of tracer 4 in a total volume of 40 μL in 96-well plates. We performed control measurements and defined 10 nM of tracer 4 in buffer as 100% displacement and the DMSO control as 0% tracer displacement. […] The results of the FP screening were visualized in a waterfall plot and plate-based heatmaps (Figure , Figure S3).
Fluorescence polarization (FP) assays were performed as follows. The assays for H. influenzae TrmD have been described previously. All assays were conducted in technical triplicate using black 96-well half area plates. For the FP assays, a tracer (20 nM Cy5TPD for E. coli and H. influenzae TrmD, 10 nM tracer 4 for S. aureus TrmD) was mixed with the respective enzyme (2 μM E. coli TrmD, 2 μM H. influenzae TrmD, 500 nM S. aureus TrmD) in buffer (E. coli and H. influenzae TrmD: 50 mM HEPES, 500 mM NaCl, 5% Glycerol, pH 7.5, S. aureus TrmD: 40 mM Tris HCl, 100 mM NaCl, 10 mM MgCl2, 5% Glycerol, pH 7.5). The compounds were added in varying concentrations for K D-value determination. […] The Z-factor for tracer 4 was determined by measuring 48 replicates of the free tracer (positive controls, PC) and 48 replicates of a mixture of enzyme and tracer (negative controls, NC). The Z-factor is defined in terms of the means (μ) and standard deviations (σ) of the positive and negative controls and calculated as Z = 1–(3*(σnc + σpc)/(μnc–μpc)). […] Polarization values (mP) were determined from polarization-specific parallel and orthogonal fluorescence intensities. K D-values were calculated in GraphPad Prism 8.0.1 using the four-parameter Hill equation: y(% tracer bound) = bottom + ([ligand]-slope) × (top–bottom)/([ligand]-slope + K Dslope).
A commercial azide diversity library (Enamine) containing 320 azides at a concentration of 100 mM in DMSO in a 96-well tube rack was employed for this nanoSAR study. For the reaction of the azides with alkyne 7 via CuAAC, a master mix was prepared. […] The solvents were degassed with argon to avoid oxidation of the copper(I) during the reaction. To each well of a 96-well PCR plate (Applied Biosystems MicroAmp) were added 23 μL of the master mix and 1 μL of the 100 mM azide stock. The final concentrations in the Mastermix were: 8.7 mM sodium ascorbate (8.3 mM in reaction well), 1.1 mM TBTA (1.0 mM in reaction well), 4.3 mM 7 (4.1 mM in reaction well), 1.3 mM CuSO4×5 H2O (1.2 mM in reaction well).

SMILES strings stand for the structures.

Regarding `O=c1[nH]cnc2[nH]cc(-c3cn(CC(F)(F)F)nn3)c12` [Compound 03A11, FC(F)(F)CN1N=NC(C=2C=3C(=O)NC=NC3NC2)=C1], the inhibition at 1 µM was 14%. Take `O=c1[nH]cnc2[nH]cc(-c3cn(Cc4ncoc4C4CCC4)nn3)c12` [Compound 02F08, O=C1NC=NC=2NC=C(C=3N=NN(C3)CC=4N=COC4C5CCC5)C12]: the inhibition at 1 µM came out at 61%. Take `Cc1ccc([C@@H](O)[C@H](C)n2cc(-c3c[nH]c4nc[nH]c(=O)c34)nn2)cc1` [Compound 01D10, O=C1NC=NC=2NC=C(C=3N=NN(C3)[C@H]([C@H](O)c4ccc(cc4)C)C)C12]: the inhibition at 1 µM was found to be 49%. As for `O=c1[nH]cnc2[nH]cc(-c3cn(C[C@@H]4CC[C@H]4C(F)(F)F)nn3)c12` [Compound 01C12, FC(F)(F)[C@H]1[C@H](CN2N=NC(C=3C=4C(=O)NC=NC4NC3)=C2)CC1], the inhibition at 1 µM worked out at 47%. Consider `CC(C)(C)n1cc(-c2c[nH]c3nc[nH]c(=O)c23)nn1` [Compound 03H11, O=C1NC=NC=2NC=C(C=3N=NN(C3)C(C)(C)C)C12], for which the inhibition at 1 µM is 11%. As for `O=c1[nH]cnc2[nH]cc(-c3cn(CC4CCCCC4)nn3)c12` [Compound 01B10, O=C1NC=NC=2NC=C(C=3N=NN(C3)CC4CCCCC4)C12], the inhibition at 1 µM was 33%. Regarding `COC(=O)CCCn1cc(-c2c[nH]c3nc[nH]c(=O)c23)nn1` [Compound 03B10, O=C(OC)CCCN1N=NC(C=2C=3C(=O)NC=NC3NC2)=C1], the inhibition at 1 µM was 58%. Consider `O=c1[nH]cnc2[nH]cc(-c3cn(C[C@@H]4CC(F)(F)CO4)nn3)c12` [Compound 01A11, F[C@]1(F)CO[C@H](CN2N=NC(C=3C=4C(=O)NC=NC4NC3)=C2)C1], for which the inhibition at 1 µM is 44%.

With `O=c1[nH]cnc2[nH]cc(-c3cn(Cc4cn5ccccc5n4)nn3)c12` [Compound 01E04, O=C1NC=NC=2NC=C(C=3N=NN(C3)CC=4N=C5N(C4)C=CC=C5)C12], the inhibition at 1 µM was found to be 46%. With `O=c1[nH]cnc2[nH]cc(-c3cn(-c4cccc5c4CCCC5)nn3)c12` [Compound 02A11, O=C1NC=NC=2NC=C(C=3N=NN(c4c5c(ccc4)CCCC5)C3)C12] the figure was 14%; with `NCCOCCn1cc(-c2c[nH]c3nc[nH]c(=O)c23)nn1` [Compound 02F12, O=C1NC=NC=2NC=C(C=3N=NN(C3)CCOCC[NH3+])C12], 39%; with `O=c1[nH]cnc2[nH]cc(-c3cn([C@H]4CCn5cccc5C4)nn3)c12` [Compound 02H10, O=C1NC=NC=2NC=C(C=3N=NN(C3)[C@@H]4CC=5N(C=CC5)CC4)C12], 24%.

Turning to `O=C1NC[C@@H](Cn2cc(-c3c[nH]c4nc[nH]c(=O)c34)nn2)O1` [Compound 02F04, O=C1O[C@H](CN2N=NC(C=3C=4C(=O)NC=NC4NC3)=C2)CN1], the inhibition at 1 µM came out at 45%. On to `O=c1[nH]cnc2[nH]cc(-c3cn(C[C@@H]4CNCCO4)nn3)c12` [Compound 02D04, O=C1NC=NC=2NC=C(C=3N=NN(C3)C[C@H]4OCC[NH2+]C4)C12], for which the inhibition at 1 µM was determined as 24%. Regarding `CC(C)(CN)Cn1cc(-c2c[nH]c3nc[nH]c(=O)c23)nn1` [Compound 02E01, O=C1NC=NC=2NC=C(C=3N=NN(C3)CC(C[NH3+])(C)C)C12], the inhibition at 1 µM was 54%. As to `O=c1[nH]cnc2[nH]cc(-c3cn(C[C@@H]4CCCC4(F)F)nn3)c12` [Compound 01F12, F[C@@]1(F)[C@H](CN2N=NC(C=3C=4C(=O)NC=NC4NC3)=C2)CCC1], the inhibition at 1 µM is 79%. For `O=c1[nH]cnc2[nH]cc(-c3cn(C[C@@H]4CC[C@@H]5C[C@@H]5C4)nn3)c12` [Compound 03A07, O=C1NC=NC=2NC=C(C=3N=NN(C3)C[C@H]4C[C@@H]5[C@@H](C5)CC4)C12] the value was 84%; for `O=c1[nH]cnc2[nH]cc(-c3cn(C4CC4)nn3)c12` [Compound 01B05, O=C1NC=NC=2NC=C(C=3N=NN(C3)C4CC4)C12], 12%. Take `O=c1[nH]cnc2[nH]cc(-c3cn([C@@H]4CCOC5(CCNCC5)C4)nn3)c12` [Compound 01B07, O=C1NC=NC=2NC=C(C=3N=NN(C3)[C@H]4CC5(OCC4)CC[NH2+]CC5)C12]: the inhibition at 1 µM stood at 34%.
